Measured values reported in patent US10376453B1, “Composition for promoting hair growth containing novel pantetheine derivative” (KOREA INSTITUTE OF OCEAN SCIENCE AND TECHNOLOGY, priority 2016, dated 2019).

Tested on: dermal papilla cells
Assay: Measurement of viability of dermal papilla cells (MTT); promotion of growth of dermal papilla cells
Format: cell-based, human
Conditions: 0.5 μM sample, 24 hours culture, MTT absorbance at 570 nm, Control = 100
Experimental: For cell culture, Dulbecco's Modified Eagle Medium (DMEM), fetal bovine serum (FBS), 0.25% trypsin-1 mM EDTA, and penicillin-streptomycin were used, and dermal papilla cells were cultured at 37° C. in a humidified 5% CO2. The medium was replaced twice a week, and the cultured dermal papilla cells were washed with PBS within 6-7 days. Next, the attached cells were separated by 0.05% trypsin-0.02% EDTA, centrifuged, and then subcultured for experiments. Specifically, 200 μl of dermal papilla cells were dispensed into each well of a 96-well plate at a density of 1×10^4 cells/well, and cultured under the conditions of 37° C. and 5% CO2 for 18 hours so as to be attached to each well. After 18 hours, the medium was removed, and 200 μl of samples was added to each well having the cells attached thereto, followed by culture for 24 hours. After the medium was removed, 100 μl of a solution of 3-(4,5-dimethylthiazol)-2,5-diphenyltetrazoliumbromide(MTT), prepared by dissolving MTT in PBS at a concentration of 500 μg/ml, was added to the cultured cells, followed by culture for 4 hours under the same conditions as described above. The formed formazan crystal was dissolved in DMSO, and the absorbance at 570 nm was measured using an ELISA reader. The measured OD values ranging from 0.00 to 3.50 were used for the experimental results. The sample for treatment of the cells was used at concentrations of 0.5, 5 and 50 μM.

Compound	Effect on the growth of dermal papilla cells
CCC(C)C(=O)SCCNC(=O)CCNC(=O)[C@H](O)C(C)(C)CO (stereo partly drawn) [S1, 2-methylbutyryl-D-pantetheine]	113.31
CC(C)CC(=O)SCCNC(=O)CCNC(=O)[C@H](O)C(C)(C)CO [S2, 3-methylbutyryl-D-pantetheine]	121.04
C=CCCC(=O)SCCNC(=O)CCNC(=O)[C@H](O)C(C)(C)CO [S4, 4-pentenoyl-D-pantetheine]	116.88
C=CCCCCCCCCC(=O)SCCNC(=O)CCNC(=O)[C@H](O)C(C)(C)CO [S5, 10-undecenoyl-D-pantetheine]	111.24
CC(C)(CO)[C@@H](O)C(=O)NCCC(=O)NCCSC(=O)c1ccc(O)cc1O [S7, 2,4-dihydroxybenzoyl-D-pantetheine]	95.73
Nc1cc(N2CCCCC2)nc(N)[n+]1[O-] [minoxidil, reference compound]	146.66
cinnamoyl-D-pantetheine [S3]	119.77
isobutyl formate-D-pantetheine [S6]	130.57

Same assay, conditions: 5 μM sample, 24 hours culture, MTT absorbance at 570 nm, Control = 100

Compound	Effect on the growth of dermal papilla cells
CCC(C)C(=O)SCCNC(=O)CCNC(=O)[C@H](O)C(C)(C)CO (stereo partly drawn) [S1, 2-methylbutyryl-D-pantetheine]	129.65
CC(C)CC(=O)SCCNC(=O)CCNC(=O)[C@H](O)C(C)(C)CO [S2, 3-methylbutyryl-D-pantetheine]	114.65
C=CCCC(=O)SCCNC(=O)CCNC(=O)[C@H](O)C(C)(C)CO [S4, 4-pentenoyl-D-pantetheine]	122.89
C=CCCCCCCCCC(=O)SCCNC(=O)CCNC(=O)[C@H](O)C(C)(C)CO [S5, 10-undecenoyl-D-pantetheine]	93.01
CC(C)(CO)[C@@H](O)C(=O)NCCC(=O)NCCSC(=O)c1ccc(O)cc1O [S7, 2,4-dihydroxybenzoyl-D-pantetheine]	97.32
Nc1cc(N2CCCCC2)nc(N)[n+]1[O-] [minoxidil, reference compound]	146.52
cinnamoyl-D-pantetheine [S3]	122.38
isobutyl formate-D-pantetheine [S6]	112.94

Same assay, conditions: 50 μM sample, 24 hours culture, MTT absorbance at 570 nm, Control = 100

Compound	Effect on the growth of dermal papilla cells
CCC(C)C(=O)SCCNC(=O)CCNC(=O)[C@H](O)C(C)(C)CO (stereo partly drawn) [S1, 2-methylbutyryl-D-pantetheine]	139.19
CC(C)CC(=O)SCCNC(=O)CCNC(=O)[C@H](O)C(C)(C)CO [S2, 3-methylbutyryl-D-pantetheine]	121.28
C=CCCC(=O)SCCNC(=O)CCNC(=O)[C@H](O)C(C)(C)CO [S4, 4-pentenoyl-D-pantetheine]	111.97
C=CCCCCCCCCC(=O)SCCNC(=O)CCNC(=O)[C@H](O)C(C)(C)CO [S5, 10-undecenoyl-D-pantetheine]	101.62
CC(C)(CO)[C@@H](O)C(=O)NCCC(=O)NCCSC(=O)c1ccc(O)cc1O [S7, 2,4-dihydroxybenzoyl-D-pantetheine]	93.12
Nc1cc(N2CCCCC2)nc(N)[n+]1[O-] [minoxidil, reference compound]	140.29
cinnamoyl-D-pantetheine [S3]	133.33
isobutyl formate-D-pantetheine [S6]	135.95
